One assay relates to DNA target AGCTTGGCG
Put plainly: Dissociation of zinc finger phage from its DNA target by actinomycin D. It counts as binding. Here is the method:
(§1) This example describes phage that bound DNA targets with higher affinity in the absence of ligand. These phage were isolated using either: (a) the same method as in example 1.1, or (b) by selection in the absence of small molecule and phage elution from DNA using a small molecule.
(§2) Phage selection is over 4 rounds. Binding reactions contain 10 pmol biotinylated DNA site immobilised on 50 mg streptavidin coated beads (Dynal) and a 1 ml solution of zinc finger phage library (as described in 1.1) Reactions were incubated for 1 h on a rolling platform. After this time, beads were washed 20 times as described in 1.1 and finally phage were eluted from the beads over 5 minutes using a solution containg ligand (10 μM Distamycin A, or 1 μM Actinomycin D in PBS/Zn).
The actinomycin D sensitive clone was selected with the DNA target AGCTTGGCG and its helices were sequenced as: […]

A further assay concerns DNA sequence AAAAAGGCG
Put plainly: Phage ELISA: zinc finger phage binding to DNA with and without distamycin A. Conditions: DNA concentration constant at 2 nM.

For assay [1], the system named is DNA target AAAAAGCGGAAAAA
Put plainly: Dissociation of zinc finger phage from its DNA target by distamycin A. It counts as binding. Here is the method:
as §1, §2
Some phage isolated by either of the above methods (a or b) bound DNA in the absence of ligand but could be displaced by concentrations of distamycin A at 10 μM and actinomycin D at 1 μM. The distamycin sensitive clone was selected using the DNA target AAAAAGCGGAAAAA (SEQ ID NO:48) and its helices were sequenced as: […]

The subject of assay [2] is CAT reporter gene downstream of the sequence AAAAAAGGCG
Nature of the assay: Transient transfection CAT reporter assay. It counts as cell-based. Particulars: in the presence of Distamycin A; zinc finger-HSV VP16 fusion cotransfected.

Structures are written as SMILES. Starred links: 1 amine or outer side, 2 acyl side, 3 side chain; linkers in the order of their positions; H or OH if unused. Positions of bridges follow the written chain, without caps; N, C: chain ends. Non-standard residues stand in square brackets, D forms with d. Residues, ends and D or L forms follow the SMILES beside them. Chains are numbered I, II in the order given. Actinocin(9to1) = Cc1c2oc3c(C)ccc(C(=O)[*:1])c3nc-2c(C(=O)[*:2])c(N)c1=O; NMeV = CN[C@H](C(=O)O)C(C)C; Sar = CNCC(=O)O

Consider `Cc1c2oc3c(C)ccc(C(=O)N[C@@H]4C(=O)N[C@H](C(C)C)C(=O)N5CCC[C@H]5C(=O)N(C)CC(=O)N(C)[C@@H](C(C)C)C(=O)O[C@@H]4C)c3nc-2c(C(=O)N[C@@H]2C(=O)N[C@H](C(C)C)C(=O)N3CCC[C@H]3C(=O)N(C)CC(=O)N(C)[C@@H](C(C)C)C(=O)O[C@@H]2C)c(N)c1=O` [actinomycin D] (I: T[dV]P[Sar][NMeV] / II: T[dV]P[Sar][NMeV]; ester I:1-I:C, II:1-II:C; linker I:N-II:N via Actinocin(9to1)), for which the “effect of ligand on phage binding to specific DNA sequence” value in the assay with DNA target AGCTTGGCG (FIG. 6) is “dissociated from the DNA”. Further, the “ligand concentration that displaces DNA-bound phage” value in the assay on DNA target AGCTTGGCG (actinomycin D sensitive clone) is 1 µM.

In the case of `Cn1cc(NC(=O)c2cc(NC(=O)c3cc(NC=O)cn3C)cn2C)cc1C(=O)NCCC(=N)N` [distamycin A], in the assay on DNA sequence AAAAAGGCG, the “ligand concentration at which phage retention is close to background level” value is reported as ≤ 10^−9 M. For the same molecule, in assay [1] (FIG. 6), the “effect of ligand on phage binding to specific DNA sequence” value is “dissociated from the DNA”. In assay [1] (distamycin sensitive clone), the “ligand concentration that displaces DNA-bound phage” value was 10 µM. In addition, in assay [2], the CAT gene expression result was “CAT expression is observed”.
